pIC50: −log10 of the molar value. Converted amounts (≈) assume the structure as drawn.
Assays:
[1] = Apparent permeability across apical to basolateral side in MDCK-MDR1 cells at 1 uM after 1 hr by LC/MS/MS analysis; format: ADME, cell-based, Canis lupus familiaris; details: dog
[2] = Half life in Sprague-Dawley rat at 10 mg/kg, po via gavage by UPLC analysis; format: ADME, organism-based; details: in vivo
[3] = Thermodynamic solubility of the compound in phosphate buffer at pH 7.4 after 24 hrs by HPLC-UV analysis; format: physicochemical; details: read-out: Therm_solubility
[4] = Intrinsic clearance in monkey liver microsomes at 1 uM measured up to 30 mins by LC-MS/MS analysis; format: ADME, Macaca mulatta, microsome; details: rhesus monkey, read-out: CLH
[5] = biological target: T1, Cytochrome P450 2B6 (Homo sapiens, UniProt P20813); experiment: Inhibition of CYP2B6 in human liver microsomes using bupropion as substrate after 10 mins in presence of NADPH by LC-MS/MS analysis; format: ADME
T1 sequence (P20813 whole entry): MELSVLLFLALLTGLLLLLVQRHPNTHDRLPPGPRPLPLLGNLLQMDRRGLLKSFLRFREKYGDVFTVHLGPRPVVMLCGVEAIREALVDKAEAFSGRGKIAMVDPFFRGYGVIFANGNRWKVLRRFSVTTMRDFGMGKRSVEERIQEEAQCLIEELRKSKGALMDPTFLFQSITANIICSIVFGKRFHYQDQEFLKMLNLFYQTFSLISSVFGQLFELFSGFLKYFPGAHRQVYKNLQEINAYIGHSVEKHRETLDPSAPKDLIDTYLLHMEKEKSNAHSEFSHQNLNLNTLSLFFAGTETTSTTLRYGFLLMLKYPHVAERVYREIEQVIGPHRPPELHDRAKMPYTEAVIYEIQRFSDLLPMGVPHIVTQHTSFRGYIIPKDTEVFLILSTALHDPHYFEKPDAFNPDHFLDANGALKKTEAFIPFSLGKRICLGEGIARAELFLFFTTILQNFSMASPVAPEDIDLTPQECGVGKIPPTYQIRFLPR

[6] = biological target: T2, Cytochrome P450 2C8 (Homo sapiens, UniProt P10632); experiment: Inhibition of CYP2C8 in human liver microsomes using amodiaquine as substrate after 10 mins in presence of NADPH by LC-MS/MS analysis; format: ADME
T2 sequence (P10632 whole entry): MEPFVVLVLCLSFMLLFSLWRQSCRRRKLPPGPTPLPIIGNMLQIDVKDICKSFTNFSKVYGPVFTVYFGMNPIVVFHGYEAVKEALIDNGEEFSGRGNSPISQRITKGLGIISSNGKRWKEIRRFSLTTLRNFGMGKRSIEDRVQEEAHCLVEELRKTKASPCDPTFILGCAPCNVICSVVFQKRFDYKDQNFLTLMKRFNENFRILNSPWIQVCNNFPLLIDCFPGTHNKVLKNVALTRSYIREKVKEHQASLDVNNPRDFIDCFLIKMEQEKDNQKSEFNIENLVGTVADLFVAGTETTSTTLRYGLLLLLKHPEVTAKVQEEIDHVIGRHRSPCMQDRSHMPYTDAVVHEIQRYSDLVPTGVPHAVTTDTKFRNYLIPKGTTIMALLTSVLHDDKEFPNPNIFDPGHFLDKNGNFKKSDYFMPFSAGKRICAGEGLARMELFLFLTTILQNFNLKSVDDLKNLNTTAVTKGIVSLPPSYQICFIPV

[7] = Protein binding in monkey plasma at 10 uM after 4 hrs by LC-MS/MS analysis; format: ADME, cell-free, Macaca mulatta; details: rhesus monkey, read-out: PPB (converted)
[8] = tested on: Mus musculus; experiment: Toxicity in SCID/Biege mouse xenografted with human 786-O cells assessed as mortality at 10 mg/kg, po bid for 21 days; format: organism-based; details: in vivo, 504 h
[9] = tested on: Rattus norvegicus; experiment: Drug metabolism in Sprague-Dawley rat assessed as formation of 3-( (4-( ( D ifluoromethyl)-1,1-dioxido-3-oxo-2,3-dihydrobenzo[b]thiophen-5-yl)oxy)-5-fluorobenzonitrile at 10 mg/kg, po by UPLC analysis; format: ADME, organism-based; details: in vivo
[10] = biological target: Cytochrome P450 2C19 (Homo sapiens, UniProt P33261); experiment: Inhibition of CYP2C19 in human liver microsomes using S-mephenytoin as substrate after 20 mins in presence of NADPH by LC-MS/MS analysis; format: ADME
Chain of Cytochrome P450 2C19 (P33261 whole entry): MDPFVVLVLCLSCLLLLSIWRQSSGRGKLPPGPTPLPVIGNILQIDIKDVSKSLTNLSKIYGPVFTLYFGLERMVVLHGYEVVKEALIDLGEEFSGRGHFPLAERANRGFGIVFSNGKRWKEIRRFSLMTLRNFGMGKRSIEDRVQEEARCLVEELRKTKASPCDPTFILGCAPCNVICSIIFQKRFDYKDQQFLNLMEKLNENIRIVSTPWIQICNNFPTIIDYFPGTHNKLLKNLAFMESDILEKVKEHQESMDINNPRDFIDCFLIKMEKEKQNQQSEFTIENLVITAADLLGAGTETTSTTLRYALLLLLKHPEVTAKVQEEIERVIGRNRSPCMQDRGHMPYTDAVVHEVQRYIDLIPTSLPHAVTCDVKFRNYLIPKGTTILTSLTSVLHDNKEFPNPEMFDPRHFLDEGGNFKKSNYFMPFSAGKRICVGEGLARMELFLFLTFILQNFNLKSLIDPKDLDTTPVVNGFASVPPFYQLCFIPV

SMILES	Papp A→B at 1 h, 1 µM [1]	half-life [2]	solubility thermodynamic at 24 h [3]	CLint scaled at 1 µM [4]	pIC50 [5]	pIC50 [6]	fraction unbound at 4 h, 10 µM [7]	Activity [8]	Drug metabolism [9]	pIC50 [10]
N#Cc1cc(F)cc(Oc2ccc3c(c2C(F)F)[C@@H](O)C(F)(F)S3(=O)=O)c1	2.6 ×10⁻⁶ cm/s	3.7 h	126 µM (≈ 51.1 µg/mL)	< 4 mL/min/kg	< 4.30	< 4.30	0.38	Non-Toxic	Metabolite_Detected	–
CS(=O)(=O)c1ccc(Oc2cc(F)cc(C#N)c2)c2c1[C@H](O)C(F)(F)C2	2.98 ×10⁻⁶ cm/s	3.3 h	59 µM (≈ 22.6 µg/mL)	5.4 mL/min/kg	< 4.30	< 4.30	0.26	Non-Toxic	–	4.34

— ChEMBL document CHEMBL4152377, “Design and Activity of Specific Hypoxia-Inducible Factor-2α (HIF-2α) Inhibitors for the Treatment of Clear Cell Renal Cell Carcinoma: Discovery of Clinical Candidate ( S)-3-((2,2-Difluoro-1-hydroxy-7-(methylsulfonyl)-2,3-dihydro-1 H-inden-4-yl)oxy)-5-fluorobenzonitrile (PT2385)” (J Med Chem, 2018)
